Measurements as given in ChEMBL document CHEMBL3885881, “DrugMatrix”.

Species on record: Rattus norvegicus
Test: DrugMatrix - Regimen: Daily Repeat
Assay type: toxicity, organism-based, Sprague-Dawley
Parameters: regimen Daily Repeat, gender Male, age 6-8 weeks
Settings: in vivo, po, route oral GAVAGE, vehicle 100 % WATER; for ABSOLUTE BASOPHIL / ABSOLUTE EOSINOPHIL / ABSOLUTE LYMPHOCYTE / ABSOLUTE MONOCYTE / ABSOLUTE SEGMENTED NEUTROPHIL / BASOPHIL / EOSINOPHIL / ERYTHROCYTE COUNT / HEMATOCRIT / HEMOGLOBIN / LEUKOCYTE COUNT / LYMPHOCYTE / MEAN CORPUSCULAR HEMOGLOBIN / MEAN CORPUSCULAR HEMOGLOBIN CONCENTRATION / MEAN CORPUSCULAR VOLUME / MONOCYTE / NEUTROPHIL / NUCLEATED RED BLOOD CELLS / PLATELET COUNT: tissue Blood; for ALANINE AMINOTRANSFERASE / ALBUMIN / ALKALINE PHOSPHATASE / ASPARTATE AMINOTRANSFERASE / BLOOD UREA NITROGEN / CARBON DIOXIDE / CHLORIDE / CHOLESTEROL / CREATINE PHOSPHOKINASE / CREATININE / GLUCOSE / LACTATE DEHYDROGENASE / LIPASE / PHOSPHORUS / POTASSIUM / SODIUM / TOTAL BILIRUBIN / TOTAL PROTEIN / URIC ACID: tissue Plasma
[1] = 63 mg/kg, 120 h, dose level High, time 5 day
[2] = […], 72 h, dose 6.3 mg/Kg, dose level Low, time 3 day
[3] = […], 120 h, dose 6.3 mg/Kg, dose level Low, time 5 day

Structure (SMILES): CNCCC=C1c2ccccc2CCc2ccccc21 [NORTRIPTYLINE]
- ABSOLUTE BASOPHIL [1]: 0 CELLS/uL
- ABSOLUTE EOSINOPHIL [1]: 0 CELLS/uL
- ABSOLUTE LYMPHOCYTE [1]: 11759 CELLS/uL
- ABSOLUTE MONOCYTE [1]: 53.67 CELLS/uL
- ABSOLUTE SEGMENTED NEUTROPHIL [1]: 987.33 CELLS/uL
- BASOPHIL [1]: 0%
- EOSINOPHIL [1]: 0%
- ERYTHROCYTE COUNT [1]: 5.77 x10E6/uL
- HEMATOCRIT [1]: 35.97%
- HEMOGLOBIN [1]: 14.67 G/DL
- LEUKOCYTE COUNT [1]: 12.8 x10E3/uL
- LYMPHOCYTE [1]: 91.67%
- MEAN CORPUSCULAR HEMOGLOBIN [1]: 25.43 pg
- MEAN CORPUSCULAR HEMOGLOBIN CONCENTRATION [1]: 40.77 G/DL
- MEAN CORPUSCULAR VOLUME [1]: 62.33 fL
- MONOCYTE [1]: 0.33%
- NEUTROPHIL [1]: 8%
- NUCLEATED RED BLOOD CELLS [1]: 0 /100WBC
- PLATELET COUNT [1]: 1245.67 x10E3/uL
- ALANINE AMINOTRANSFERASE [1]: 45.67 u/L
- ALBUMIN [1]: 4.27 G/DL
- ALKALINE PHOSPHATASE [1]: 460.33 u/L
- ASPARTATE AMINOTRANSFERASE [1]: 77.33 u/L
- BLOOD UREA NITROGEN [1]: 16.33 mg/dL
- CARBON DIOXIDE [1]: 29 mmol/L
- CHLORIDE [1]: 101.33 MEQ/L
- CHOLESTEROL [1]: 78 mg/dL
- CREATINE PHOSPHOKINASE [1]: 346.33 u/L
- CREATININE [1]: 0.24 mg/dL
- GLUCOSE [1]: 205 mg/dL
- LACTATE DEHYDROGENASE [1]: 142 u/L
- LIPASE [1]: 9.67 u/L
- PHOSPHORUS [1]: 11.23 mg/dL
- POTASSIUM [1]: 4.99 MEQ/L
- SODIUM [1]: 144.43 MEQ/L
- TOTAL BILIRUBIN [1]: 0.17 mg/dL
- TOTAL PROTEIN [1]: 6.07 G/DL
- URIC ACID [1]: 1.6 mg/dL
- ABSOLUTE BASOPHIL [2]: 0 CELLS/uL
- ABSOLUTE EOSINOPHIL [2]: 47.67 CELLS/uL
- ABSOLUTE LYMPHOCYTE [2]: 13905.67 CELLS/uL
- ABSOLUTE MONOCYTE [2]: 0 CELLS/uL
- ABSOLUTE SEGMENTED NEUTROPHIL [2]: 1246.67 CELLS/uL
- BASOPHIL [2]: 0%
- EOSINOPHIL [2]: 0.33%
- ERYTHROCYTE COUNT [2]: 5.4 x10E6/uL
- HEMATOCRIT [2]: 34.5%
- HEMOGLOBIN [2]: 13.8 G/DL
- LEUKOCYTE COUNT [2]: 15.2 x10E3/uL
- LYMPHOCYTE [2]: 90.67%
- MEAN CORPUSCULAR HEMOGLOBIN [2]: 25.57 pg
- MEAN CORPUSCULAR HEMOGLOBIN CONCENTRATION [2]: 39.97 G/DL
- MEAN CORPUSCULAR VOLUME [2]: 63.87 fL
- MONOCYTE [2]: 0%
- NEUTROPHIL [2]: 9%
- NUCLEATED RED BLOOD CELLS [2]: 0.33 /100WBC
- PLATELET COUNT [2]: 1291.33 x10E3/uL
- ALANINE AMINOTRANSFERASE [2]: 51.33 u/L
- ALBUMIN [2]: 3.87 G/DL
- ALKALINE PHOSPHATASE [2]: 385.33 u/L
- ASPARTATE AMINOTRANSFERASE [2]: 86.33 u/L
- BLOOD UREA NITROGEN [2]: 14.33 mg/dL
- CARBON DIOXIDE [2]: 34 mmol/L
- CHLORIDE [2]: 99.33 MEQ/L
- CHOLESTEROL [2]: 71.33 mg/dL
- CREATINE PHOSPHOKINASE [2]: 248 u/L
- CREATININE [2]: 0.17 mg/dL
- GLUCOSE [2]: 136.67 mg/dL
- LACTATE DEHYDROGENASE [2]: 250.33 u/L
- LIPASE [2]: 10 u/L
- PHOSPHORUS [2]: 11.47 mg/dL
- POTASSIUM [2]: 6.49 MEQ/L
- SODIUM [2]: 143 MEQ/L
- TOTAL BILIRUBIN [2]: 0.23 mg/dL
- TOTAL PROTEIN [2]: 5.9 G/DL
- URIC ACID [2]: 1.23 mg/dL
- ABSOLUTE BASOPHIL [3]: 0 CELLS/uL
- ABSOLUTE EOSINOPHIL [3]: 0 CELLS/uL
- ABSOLUTE LYMPHOCYTE [3]: 14550 CELLS/uL
- ABSOLUTE MONOCYTE [3]: 394 CELLS/uL
- ABSOLUTE SEGMENTED NEUTROPHIL [3]: 2022.67 CELLS/uL
- BASOPHIL [3]: 0%
- EOSINOPHIL [3]: 0%
- ERYTHROCYTE COUNT [3]: 5.68 x10E6/uL
- HEMATOCRIT [3]: 35.47%
- HEMOGLOBIN [3]: 14.63 G/DL
- LEUKOCYTE COUNT [3]: 16.97 x10E3/uL
- LYMPHOCYTE [3]: 85.67%
- MEAN CORPUSCULAR HEMOGLOBIN [3]: 25.87 pg
- MEAN CORPUSCULAR HEMOGLOBIN CONCENTRATION [3]: 41.2 G/DL
- MEAN CORPUSCULAR VOLUME [3]: 62.7 fL
- MONOCYTE [3]: 2.33%
- NEUTROPHIL [3]: 12%
- NUCLEATED RED BLOOD CELLS [3]: 0 /100WBC
- PLATELET COUNT [3]: 1314.33 x10E3/uL
- ALANINE AMINOTRANSFERASE [3]: 49.33 u/L
- ALBUMIN [3]: 4.63 G/DL
- ALKALINE PHOSPHATASE [3]: 430.67 u/L
- ASPARTATE AMINOTRANSFERASE [3]: 87.33 u/L
- BLOOD UREA NITROGEN [3]: 23 mg/dL
- CARBON DIOXIDE [3]: 28 mmol/L
- CHLORIDE [3]: 98.33 MEQ/L
- CHOLESTEROL [3]: 70.33 mg/dL
- CREATINE PHOSPHOKINASE [3]: 246 u/L
- CREATININE [3]: 0.24 mg/dL
- GLUCOSE [3]: 143.33 mg/dL
- LACTATE DEHYDROGENASE [3]: 121 u/L
- LIPASE [3]: 11 u/L
- PHOSPHORUS [3]: 12.13 mg/dL
- POTASSIUM [3]: 7.2 MEQ/L
- SODIUM [3]: 141.23 MEQ/L
- TOTAL BILIRUBIN [3]: 0.27 mg/dL
- TOTAL PROTEIN [3]: 6.6 G/DL
- URIC ACID [3]: 2.13 mg/dL
